Results on 25 compounds are retold here after patent US11104664B2, “4,5,6-trisubstituted indazole derivatives, and preparation method and pharmaceutical use thereof” (SHANGHAI HAIYAN PHARMACEUTICAL TECHNOLOGY CO., LTD., priority 2016, dated 2021).

Assay [1] deals with Recombinant PRC2 (EZH2-Y641F) (Homo sapiens (Human), UniProt Q15910, Y641F). The experiment in a line: In vitro methyltransferase activity assay (LANCE Ultra). The class given is biochemical. Conditions: for IC50: 2.5 μM SAM/250 nM H3(1-50)K27me1, 3 hours, room temperature. How it is done:
Recombinant PRC2 (EZH2-Y641F) was purchased from Active motif, S-adenosyl-methionine (SAM) and Poly-L-lysine (PLL) were purchased from Sigma-Aldrich, and H3(1-50)K27me1 peptide was purchased from Cisbio. LANCEUltrasystem (Perkinelmer) was used for detection system. In the enzyme activity test, compounds to be tested were diluted by 8 gradient points in a ratio of 1:3, and added into each well in a reaction plate, and 100 ng recombinase was added, followed by a buffer [20 mM Tris pH8.5, 2 mM MgCl2, 0.01% Tween-20, 1 mM TCEP] containing 2.5 μM SAM/250 nM H3 (1-50)K27me1 premixtures. Enzymatic reaction thus began at room temperature. After reacted for 3 hours, a detection solution premixed with PLL, detection antibody and Ulight was added, and reacted for 1 hour at room temperature. The fluorescence value was then read on a Tecan infinite pro. IC50 was calculated by fitting in a four-factor model in the XLfit software.

A further assay relates to Pfeiffer cells. Put plainly: Cell proliferation assay (Cell counting kit-8, 6 days). The class given is cell-based. Conditions: Pfeiffer (CRL-2632), 6 days culture. How it is done:
The used cell lines Pfeiffer (CRL-2632), suDHL-6 (CRL-2959) and suDHL-10 (CRL-2963) were obtained from American Type Culture Collection (ATCC). All cell lines were cultured in RPMI-1640 medium (Gibco) containing 10% fetal bovine serum (Gibco). The cultured cells were harvested by centrifugation and the cell density was determined using a CounterStar cell counter. Appropriate number of cells were plated in a 96-well culture plate and incubated overnight. Compounds to be tested were diluted by 8 gradient points in a ratio of 1:3 and added into corresponding wells. After continuing to culture for 6 days, the number of viable cells was measured with Cell counting kit-8, and the absorbance value was read on Tecan infinite pro. The IC50 was calculated by fitting in a four-parameter model in the XLfit software.

Chain of Recombinant PRC2 (EZH2-Y641F) (Q15910 whole entry Y641F): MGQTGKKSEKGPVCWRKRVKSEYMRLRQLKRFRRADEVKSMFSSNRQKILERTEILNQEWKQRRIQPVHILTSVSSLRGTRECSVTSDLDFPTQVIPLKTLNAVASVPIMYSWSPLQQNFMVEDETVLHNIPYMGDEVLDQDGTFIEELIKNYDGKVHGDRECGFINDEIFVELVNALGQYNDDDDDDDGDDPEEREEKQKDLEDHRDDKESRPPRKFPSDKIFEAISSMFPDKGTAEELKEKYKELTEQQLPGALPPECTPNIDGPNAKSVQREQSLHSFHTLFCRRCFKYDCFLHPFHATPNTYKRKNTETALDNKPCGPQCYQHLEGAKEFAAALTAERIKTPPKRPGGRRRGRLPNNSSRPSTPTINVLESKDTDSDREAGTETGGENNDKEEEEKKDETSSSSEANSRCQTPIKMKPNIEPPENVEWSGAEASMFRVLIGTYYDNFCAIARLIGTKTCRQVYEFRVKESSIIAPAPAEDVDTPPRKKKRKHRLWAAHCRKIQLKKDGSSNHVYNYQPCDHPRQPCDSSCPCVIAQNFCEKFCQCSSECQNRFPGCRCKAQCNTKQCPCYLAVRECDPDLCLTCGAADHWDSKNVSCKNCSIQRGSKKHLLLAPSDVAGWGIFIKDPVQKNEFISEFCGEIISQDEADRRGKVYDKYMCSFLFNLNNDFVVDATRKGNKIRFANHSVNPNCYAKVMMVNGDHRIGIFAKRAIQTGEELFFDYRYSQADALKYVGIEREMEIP
Chain of Recombinant PRC2 (EZH2-Y641F) (O75530 whole entry partner): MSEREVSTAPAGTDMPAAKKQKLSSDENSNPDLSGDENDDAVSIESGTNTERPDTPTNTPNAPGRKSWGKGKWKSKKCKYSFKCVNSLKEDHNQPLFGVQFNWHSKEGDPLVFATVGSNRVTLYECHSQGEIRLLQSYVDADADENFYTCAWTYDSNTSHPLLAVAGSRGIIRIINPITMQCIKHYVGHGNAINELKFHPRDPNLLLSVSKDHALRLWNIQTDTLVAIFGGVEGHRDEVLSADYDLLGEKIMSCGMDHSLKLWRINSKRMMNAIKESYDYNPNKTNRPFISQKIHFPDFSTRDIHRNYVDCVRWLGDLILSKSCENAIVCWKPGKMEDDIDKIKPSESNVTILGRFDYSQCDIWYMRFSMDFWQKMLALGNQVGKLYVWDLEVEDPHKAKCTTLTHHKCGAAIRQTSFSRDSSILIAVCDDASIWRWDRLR
Chain of Recombinant PRC2 (EZH2-Y641F) (Q15022 whole entry partner): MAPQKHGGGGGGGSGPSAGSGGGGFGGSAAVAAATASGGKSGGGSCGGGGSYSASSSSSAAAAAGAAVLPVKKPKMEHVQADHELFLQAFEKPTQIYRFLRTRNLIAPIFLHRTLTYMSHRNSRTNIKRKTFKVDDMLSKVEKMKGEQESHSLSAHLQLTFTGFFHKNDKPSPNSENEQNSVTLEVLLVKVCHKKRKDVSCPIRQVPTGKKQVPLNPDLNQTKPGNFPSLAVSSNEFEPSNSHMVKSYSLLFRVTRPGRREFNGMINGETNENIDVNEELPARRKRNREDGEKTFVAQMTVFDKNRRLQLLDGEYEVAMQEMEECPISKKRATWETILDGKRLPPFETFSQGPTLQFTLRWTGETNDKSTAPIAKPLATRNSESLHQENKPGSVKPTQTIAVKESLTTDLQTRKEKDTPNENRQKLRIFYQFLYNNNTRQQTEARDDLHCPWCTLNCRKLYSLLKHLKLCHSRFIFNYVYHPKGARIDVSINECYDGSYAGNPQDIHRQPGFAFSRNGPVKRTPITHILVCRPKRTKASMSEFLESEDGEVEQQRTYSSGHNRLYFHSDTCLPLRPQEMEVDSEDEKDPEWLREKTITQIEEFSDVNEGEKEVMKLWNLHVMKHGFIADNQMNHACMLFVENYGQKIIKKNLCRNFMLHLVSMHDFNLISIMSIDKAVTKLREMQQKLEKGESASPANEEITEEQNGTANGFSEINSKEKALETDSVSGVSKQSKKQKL
Chain of Recombinant PRC2 (EZH2-Y641F) (Q09028 whole entry partner): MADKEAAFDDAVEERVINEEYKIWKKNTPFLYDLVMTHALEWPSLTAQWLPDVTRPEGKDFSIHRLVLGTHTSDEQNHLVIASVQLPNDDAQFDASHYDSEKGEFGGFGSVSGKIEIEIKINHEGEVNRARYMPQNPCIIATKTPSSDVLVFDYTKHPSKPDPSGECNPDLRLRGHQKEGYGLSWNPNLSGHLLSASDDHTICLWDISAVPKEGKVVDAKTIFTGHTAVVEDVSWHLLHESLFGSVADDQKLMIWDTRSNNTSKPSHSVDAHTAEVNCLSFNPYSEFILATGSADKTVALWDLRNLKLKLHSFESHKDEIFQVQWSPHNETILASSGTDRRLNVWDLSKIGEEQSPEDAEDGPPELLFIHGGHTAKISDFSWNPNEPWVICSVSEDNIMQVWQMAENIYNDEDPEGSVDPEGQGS
Chain of Recombinant PRC2 (EZH2-Y641F) (Q6ZN18 whole entry partner): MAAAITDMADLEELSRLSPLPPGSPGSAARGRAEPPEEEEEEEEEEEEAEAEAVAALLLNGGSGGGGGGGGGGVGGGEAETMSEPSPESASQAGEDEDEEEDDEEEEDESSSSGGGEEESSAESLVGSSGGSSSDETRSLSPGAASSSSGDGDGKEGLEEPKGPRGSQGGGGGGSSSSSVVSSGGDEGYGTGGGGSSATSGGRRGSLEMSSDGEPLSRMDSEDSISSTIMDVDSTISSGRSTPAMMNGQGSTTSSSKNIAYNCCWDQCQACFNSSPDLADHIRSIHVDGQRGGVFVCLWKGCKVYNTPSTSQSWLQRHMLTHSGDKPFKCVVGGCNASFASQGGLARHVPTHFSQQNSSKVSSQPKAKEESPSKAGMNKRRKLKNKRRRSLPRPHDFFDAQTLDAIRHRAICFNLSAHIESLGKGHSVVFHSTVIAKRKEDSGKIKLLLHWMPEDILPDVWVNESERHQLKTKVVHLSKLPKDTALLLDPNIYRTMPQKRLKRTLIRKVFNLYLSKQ

Turning to `CCc1c(C(=O)NCc2c(C)cc(C)[nH]c2=O)cc2c(cnn2C)c1N(CC)C1CCC(N(C)CCOC)CC1` [P-20, N-((4,6-dimethyl-2-oxo-1,2-dihydropyridin-3-yl)methyl)-5-ethyl-4-(ethyl((1S, 4S)-4-((2-methoxyethyl)(methyl)amino)cyclohexyl)amino)-1-methyl-1H-indazole-6-carboxamide], the values for the IC50 (in assay [1]; in the assay on Pfeiffer cells) were 0.018 µM and 0.031 µM, respectively.

As to `CCN(c1c(C)c(C(=O)NCc2c(C)cc(C)[nH]c2=O)cc2c1cnn2C)C1CCC(N2CCCCC2)CC1` (stereo not drawn) [P-32], the IC50 turned out to be 0.012 µM in assay [1] and 0.059 µM with Pfeiffer cells (Homo sapiens, 144 h). For the compound `CCN(c1c(C)c(C(=O)NCc2c(C)cc(C)[nH]c2=O)cc2c1c(F)nn2C)C1CCOCC1` [P-41], the IC50 is 0.425 µM in assay [1] and 2 µM in the assay with Pfeiffer cells (Homo sapiens, 144 h). Moreover, the “inhibitory activity against the enzyme (in words)” value in assay [1] (SAR comment on Table 1, reduced relative to comparator compounds (P-7, P-13/14)) was “greatly reduced”. As for `CCN(c1c(C#N)c(C(=O)NCc2c(C)cc(C)[nH]c2=O)cc2c1cnn2C)C1CCOCC1` [P-27], the IC50 in assay [1] was 1.75 µM; in the assay with Pfeiffer cells (Homo sapiens, 144 h), more than 10 µM. On to `CCN(c1c(C)c(C(=O)NCc2c(C)cc(C)[nH]c2=O)cc2c1cnn2C)C1CCOCC1` [P-7, N-((4,6-dimethyl-2-oxo-1,2-dihydropyridin-3-yl)methyl)-4-(ethyl(tetrahydro-2H-pyran-4-yl)amino)-1,5-dimethyl-1H-indazole-6-carboxamide], for which 0.158 µM corresponded to half-maximal inhibition in the assay on Pfeiffer cells (Homo sapiens, 144 h) (IC50). Regarding `CCN(c1c(C)c(C(=O)NCc2c(C)cc(C)[nH]c2=O)cc2c1cnn2C)[C@H]1CC[C@H](N(C)C)CC1` [P-14, N-((4,6-dimethyl-2-oxo-1,2-dihydropyridin-3-yl)methyl)-4-(((1R, 4R)-4-(dimethylamino)cyclohexyl)(ethyl)amino)-1,5-dimethyl-1H-indazole-6-carboxamide], the values for the IC50 (in assay [1]; in the assay with Pfeiffer cells) were 0.005 µM and 0.212 µM, respectively. On to `CCc1c(C(=O)NCc2c(C)cc(C)[nH]c2=O)cc2c(cnn2C)c1N(CC)C1CCC(N2CC(OCC(F)(F)F)C2)CC1` (stereo not drawn) [P-36], for which the IC50 in assay [1] is 0.013 µM; with Pfeiffer cells (Homo sapiens, 144 h), 0.003 µM. Take `CCc1c(C(=O)NCc2c(C)cc(C)[nH]c2=O)cc2c(cnn2C)c1N(CC)[C@H]1CC[C@H](N2CC(OC)C2)CC1` [P-19]: the figures for the IC50 (in assay [1]; in the assay with Pfeiffer cells) were 0.045 µM and 0.076 µM, respectively. With `CCc1c(C(=O)NCc2c(OC)cc(C)[nH]c2=O)cc2c(cnn2C)c1N(CC)C1CCC(N(C)C)CC1` (stereo not drawn) [P-22, 4-((4-(dimethylamino)cyclohexyl)(ethyl)amino)-5-ethyl-N-((4-methoxy-6-methyl-2-oxo-1,2-dihydropyridin-3-yl)methyl) 1-methyl-1H-indazole-6-carboxamide], the IC50 was 0.005 µM in assay [1] and 0.066 µM in the assay with Pfeiffer cells. For the compound `CCN(c1ccc(CN(C)C)cc1)c1c(C)c(C(=O)NCc2c(C)cc(C)[nH]c2=O)cc2c1cnn2C` [P-43], the IC50 in assay [1] was found to be 0.033 µM; in the assay with Pfeiffer cells (Homo sapiens, 144 h), 0.123 µM. In the case of `CCN(c1c(C)c(C(=O)NCc2c(C)cc(C)[nH]c2=O)cc2c1cnn2C)C1CCC(CN(C)C)CC1` (stereo not drawn) [P-26], the IC50 was 0.008 µM in assay [1] and 0.048 µM in the assay on Pfeiffer cells (Homo sapiens, 144 h). Turning to `CCN(c1c(C)c(C(=O)NCc2c(OC)cc(C)[nH]c2=O)cc2c1cnn2C)C1CCN(CC(F)(F)F)CC1` [P-11, 4-(ethyl(1-(2,2,2-trifluoroethyl)piperidin-4-yl)amino)-N-((4-methoxy-6-methyl-2-oxo-1,2-dihydropyridin-3-yl)methyl)-1,5-dimethyl-1H-indazole-6-carboxamide], the IC50 in assay [1] was 0.013 µM; in the assay on Pfeiffer cells (Homo sapiens, 144 h), 0.292 µM. Turning to `CCc1c(C(=O)NCc2c(OC)cc(C)[nH]c2=O)cc2c(cnn2C)c1N(CC)C1CCOCC1` [P-16, 5-ethyl-4-(ethyl(tetrahydro-2H-pyran-4-yl)amino)-N-((4-methoxy-6-methyl-2-oxo-1,2-dihydropyridin-3-yl)methyl)-1-methyl-1H-indazole-6-carboxamide], the IC50 in assay [1] was 0.008 µM; in the assay with Pfeiffer cells (Homo sapiens, 144 h), 0.007 µM. The corresponding values for `CCc1c(C(=O)NCc2c(C)cc(C)[nH]c2=O)cc2c(cnn2C)c1N(CC)C1CCC(N(C)C)CC1` (stereo not drawn) [P-23] are 0.005 µM and 0.025 µM.

Take `CCc1c(C(=O)NCc2c(C)cc(C)[nH]c2=O)cc2c(cnn2C)c1N(CC)C1CCOCC1` [P-17, N-((4,6-dimethyl-2-oxo-1,2-dihydropyridin-3-yl)methyl)-5-ethyl-4-(ethyl(tetrahydro-2H-pyran-4-yl)amino)-1-methyl-1H-indazole-6-carboxamide]: the IC50 stood at 0.008 µM in assay [1] and 0.036 µM in the assay on Pfeiffer cells (Homo sapiens, 144 h).

Consider `CCN(c1c(C)c(C(=O)NCc2c(C)cc(C)[nH]c2=O)cc2c1cnn2C)C1CCN(C2COC2)CC1` [P-48, N-((4,6-dimethyl-2-oxo-1,2-dihydropyridin-3-yl)methyl)-4-(ethyl(1-(oxetane-3-yl)piperidin-4-yl)amino)-1,5-dimethyl-1H-indazole-6-carboxamide], for which the IC50 came to 0.049 µM in assay [1] and 0.305 µM in the assay with Pfeiffer cells (Homo sapiens, 144 h). In the case of `CCN(c1c(C2CC2)c(C(=O)NCc2c(C)cc(C)[nH]c2=O)cc2c1cnn2C)C1CCOCC1` [P-28], the IC50 in assay [1] was found to be 0.402 µM; with Pfeiffer cells (Homo sapiens, 144 h), 0.702 µM. Consider `CCOC1CN(C2CCC(N(CC)c3c(CC)c(C(=O)NCc4c(C)cc(C)[nH]c4=O)cc4c3cnn4C)CC2)C1` (stereo not drawn) [P-39], for which the IC50 was determined as 0.007 µM in assay [1] and 0.005 µM in the assay on Pfeiffer cells (Homo sapiens, 144 h).

For `CCc1c(C(=O)NCc2c(C)cc(C)[nH]c2=O)cc2c(cnn2C)c1N(CC)C1CCC(N2CC(C)C2)CC1` [P-18, N-((4,6-dimethyl-2-oxo-1,2-dihydropyridin-3-yl)methyl)-5-ethyl-4-(ethyl((1S,4S)-4-(3-methylazetiazin-1-yl)cyclohexyl)amino)-1-methyl-1H-indazole-6-carboxamide], the IC50 in assay [1] came to 0.012 µM; with Pfeiffer cells it was 0.007 µM. For the compound `CCc1c(C(=O)NCc2c(C)cc(C)[nH]c2=O)cc2c(cnn2C)c1N(CC)C1CCC(N2CC(O)C2)CC1` (stereo not drawn) [P-47, N-((4,6-dimethyl-2-oxo-1,2-dihydropyridin-3-yl)methyl)-5-ethyl-4-(ethyl(4-(3-hydroxyazetidin-1-yl)cyclohexyl)amino)-1-methyl-1H-indazole-6-carboxamide], the IC50 in assay [1] came out at 0.007 µM; in the assay with Pfeiffer cells (Homo sapiens, 144 h), 0.178 µM. On to `CCN(c1c(C)c(C(=O)NCc2c(C)cc(C)[nH]c2=O)cc2c1cnn2CC1CCOC1)C1CCOCC1` (stereo not drawn) [P-40], for which the IC50 in the assay on Pfeiffer cells (Homo sapiens, 144 h) is 0.268 µM.

For `CCN(c1c(C)c(C(=O)NCc2c(C)cc(C)[nH]c2=O)cc2c1cnn2C(F)F)C1CCOCC1` [P-10, 1-(difluoromethyl)-N-((4,6-dimethyl-2-oxo-1,2-dihydropyridin-3-yl)methyl)-4-(ethyl(tetrahydro-2H-pyran-4-yl)amino)-5-methyl-1H-indazole-6-carboxamide], the IC50 was 0.061 µM in assay [1] and 0.141 µM with Pfeiffer cells (Homo sapiens, 144 h).

Turning to `CCc1c(C(=O)NCc2c(C)cc(C)[nH]c2=O)cc2c(cnn2C)c1N(CC)C1CCC(N2CCOCC2)CC1` (stereo not drawn) [P-24], the IC50 in assay [1] turned out to be 0.009 µM; in the assay with Pfeiffer cells (Homo sapiens, 144 h) it was 0.169 µM. For the compound `CCN(c1c(C)c(C(=O)NCc2c(C)cc(C)[nH]c2=O)cc2c1cnn2C)C1CCC(N2CC(F)(F)C2)CC1` (stereo not drawn) [P-31], the IC50 in assay [1] stood at 0.015 µM; in the assay with Pfeiffer cells (Homo sapiens, 144 h) it was 0.13 µM.

`CCN(c1c(C)c(C(=O)NCc2c(OC)cc(C)[nH]c2=O)cc2c1cnn2C(F)F)C1CCOCC1` [P-5, 1-(difluoromethyl)-4-(ethyl(tetrahydro-2H-pyran-4-yl)amino)-N-((4-methoxy-6-methyl-2-oxo-1,2-dihydropyridin-3-yl)methyl)-5-methyl-1H-indazole-6-carboxamide] registered an IC50 in the assay on Pfeiffer cells (Homo sapiens, 144 h) of 0.071 µM.
